Data on 4 compounds can be found in ChEMBL document CHEMBL3045674, “Synthesis of N-[3-(acetylthio)alkanoyl] and N-[3-mercaptoalkanoyl]-4-(s)-(phenylmethyl) pyroglutamic acids and prolines as potent ACE inhibitors” (2009).

Experiment [1] concerns Rattus norvegicus. As to the kind of experiment: Antihypertensive activity in Rattus norvegicus Sprague-Dawley (rat) assessed as inhibition of angiotensin-1-induced increase in blood pressure at 30 ug/kg, iv administered 5 min before angiotensin-1 challenge. The class given is functional.
The subject of experiment [2] is Rattus norvegicus. As to the kind of experiment: Antihypertensive activity in Rattus norvegicus Sprague-Dawley (rat) assessed as inhibition of angiotensin-1-induced increase in blood pressure at 10 ug/kg, iv administered 5 min before angiotensin-1 challenge. Type of experiment: functional.

Calls of active or inactive are those of the source. No cut-off for these calls is given here.

A word on the inhibition in vivo: it is the change of the read-out against control, counted positive when it falls. Consider `CC(=O)SCCC(=O)N1C(=O)[C@@H](Cc2ccccc2)C[C@H]1C(=O)O`, for which, in the experiment with Rattus norvegicus [1], the inhibition in vivo at 0.03 mg/kg came out at 20%. Further, the inhibition in vivo at 0.01 mg/kg with Rattus norvegicus [2] is 13%. Turning to `CC(=O)SC[C@@H](C)C(=O)N1C[C@@H](Cc2ccccc2)C[C@H]1C(=O)O`, the inhibition in vivo at 0.01 mg/kg in the experiment on Rattus norvegicus [2] turned out to be 22%. Turning to `CC(=O)SC[C@@H](C)C(=O)N1C(=O)[C@@H](Cc2ccccc2)C[C@H]1C(=O)O`, the inhibition in vivo at 0.03 mg/kg in the experiment with Rattus norvegicus [1] stood at 60%. In addition, the inhibition entry in the experiment on Rattus norvegicus [2] is “inactive”.

On to `C[C@H](CS)C(=O)N1CCC[C@H]1C(=O)O` [CAPTOPRIL], for which the inhibition in vivo at 0.01 mg/kg with Rattus norvegicus [2] worked out at 60%.
